Values quoted from earlier work as cited in patent EP4060021A1, “MIMETIC MICROBIOLOGICAL CULTURE MEDIUM AND USES THEREOF” (BIOFILM PHARMA, priority 2021, dated 2022).
Read-outs that look alike come from different tables or passages of the source.

Assays:
P. aeruginosa = settings: coculture S. aureus avec P. aeruginosa dans du milieu Lubbock; cited from earlier work
S. aureus = settings: coculture S. aureus avec P. aeruginosa dans du milieu Lubbock; cited from earlier work
souche de S. aureus = settings: modèle de sepsis, souris infectée par S. aureus, traitées; cited from earlier work
[1] = test system: souches de S. aureus issues de plaies; settings: cited from earlier work

## gentamicine
P. aeruginosa
  résistance en coculture: ce qui n'est pas le cas
S. aureus
  résistance en coculture: résistance partielle

## CC(=O)OCC1=C(C(=O)O)N2C(=O)[C@@H](NC(=O)Cc3cccs3)[C@H]2SC1 [cefalotine]
Souche de S. aureus
  survie des souris: ont survécu

## CCCCCCCCCC(=O)N[C@@H](Cc1c[nH]c2ccccc12)C(=O)N[C@@H](CC(N)=O)C(=O)N[C@@H](CC(=O)O)C(=O)N[C@@H]1C(=O)NCC(=O)N[C@@H](CCCN)C(=O)N[C@@H](CC(=O)O)C(=O)N[C@H](C)C(=O)N[C@@H](CC(=O)O)C(=O)NCC(=O)N[C@H](CO)C(=O)N[C@@H]([C@H](C)CC(=O)O)C(=O)N[C@@H](CC(=O)c2ccccc2N)C(=O)O[C@@H]1C (stereo in doubt) [daptomycine]
[1]; milieu DMEM
  sensibilité des souches de S. aureus: plus sensibles
[1]; milieux MLM ou Lacks
  sensibilité des souches de S. aureus: plus résistantes

## CO/N=C(\C(=O)N[C@@H]1C(=O)N2C(C(=O)O)=C(CSc3nc(=O)c(=O)[nH]n3C)CS[C@H]12)c1csc(N)n1 [ceftriaxone]
Souche de S. aureus
  survie des souris: ont survécu

## CC[C@H]1OC(=O)[C@H](C)[C@@H](O[C@H]2C[C@@](C)(OC)[C@@H](O)[C@H](C)O2)[C@H](C)[C@@H](O[C@@H]2O[C@H](C)C[C@H](N(C)C)[C@H]2O)[C@](C)(O)C[C@@H](C)C(=O)[C@H](C)[C@@H](O)[C@]1(C)O [érythromycine]
Souche de S. aureus
  survie des souris: ont survécu
